How the values were obtained:
[1] = test system: C. elegans; assay: Peroxide treatment of mutant, RNAi or unstressed worms: MMP, OCR and growth read together; type: in vivo
Description: C. elegans wild-type (N2) strain was received from Caenorhabditis Genetics Center, USA. Mutant strains were generated using the following primers. Idh-1: […] and […]; C31C9.2 (ghpr-1): […] and […]and F41E6.5 (gox-1): […]and[…]. […] Progeny of the rescued strains were genotyped for homozygous deletion with PCR primers for three generations. All mutants were outcrossed at least twice with the wild type to eliminate background mutations. Double and triple mutants were obtained by crossing single or double mutants and selecting the homozygous progeny by PCR.
For RNAi experiments in liquid, E. coli HT115 containing L4440 empty vector or the indicated cDNA fragment in L4440 was inoculated in 100 ml of LB containing 100 μg/ml ampicillin and incubated overnight at 37° C. in a shaking incubator at 250 rpm. To induce the production of dsRNA, a final concentration 0.8 mM IPTG was added to the collected bacterial pellet diluted 100-fold and incubated overnight at 25° C. in a shaking incubator at 250 rpm. Bacteria were then pelleted by centrifugation at 4000 rpm for 5 mins and resuspended in 200 μl S-medium containing 100 μg/ml ampicillin and 0.8 mM IPTG.
A population of synchronized L1 larvae was added to 30-ml glass tubes containing 2.5 ml of S-complete medium (liquid culture)^2 and NA22 or induced RNAi bacteria at an OD600 of 1.9. […] Worms were incubated at 15° C. and 150 rpm in a shaking incubator for 2-6 days, refreshing the medium every 2 days.
Mitochondrial staining was performed as described previously^3,4. Briefly, L1 worms were grown on plate or in liquid culture for 2-3 days at 15° C. Subsequently, they were pelleted in a 15-ml tube, rinsed twice with H2O and resuspended in 100 μl of M9. 5 μM MitoTracker Red CMXRos (Thermo Fisher Scientific, Germany) in DMSO was added to the worm suspension and incubated in this solution for 1.5 hr at room temperature in the dark. Next, the excess dye was washed off with M9 buffer and worms were incubated in 100 μl M9 for 30 min to eliminate the excess dye in the gut. Finally, worms were paralyzed with 0.5 mM Levamizol (Sigma-Aldrich), placed on slides covered with a thin layer of 2% agarose on top of which the coverslip (22×22 mm, Menzel-Glaser no. 1) was fixed using nail polish. We used a Zeiss LSM 700 inverted laser scanning confocal microscope and a Zeiss LCI Plan-Neofluar 63×/1.3 ImmCorr DIC M27 objective to image mitochondria (Zeiss, Germany). MitoTracker Red CMXRos was excited at 555 nm and the emission above 560 nm was acquired by the second PMT. Optical sections at 0.1×0.1×0.5 μm^3 x-y-z resolution were collected in a 4D hyperstack. Final images were adjusted for intensity and merged in Fiji. No non-linear adjustments were made.
Synchronized L1 worms were incubated at 15° C. on plates or in liquid culture and exposed to different conditions as indicated. Single worms were selected randomly from the plates or aliquots were taken from the liquid cultures and added to NGM plates for immediate visualization. 25 worms per treatment were measured at 24-48 hr intervals and all growth curves were done four times. Images were analyzed using FIJI (Image J) software, with length measurements derived by the sum-total of a number of segmented lines of known length, down the center of the worm as described previously^5.
(§1) Oxygen consumption of worms was measured with a Seahorse XFe96 system (Seahorse Bioscience, North Billerica, MA), as previously described^4. L3 larvae of the different strains were grown on plates or in liquid culture and supplemented for 2-4 days as described for each experiment. After removing bacteria and debris, approximately 100 worms were pipetted into each well of a 96-well Seahorse XF^e assay plate and OCR was measured until it stabilized. Then, 3 subsequent measurements were made at 6.5-min intervals. Finally, the exact number of worms in each well was counted and used for normalization.

[2] = test system: gox-1, ghpr-1, gcst-1, mel-32 and gcs-1 genes; assay: Quantitative real-time PCR of glycolate pathway genes; type: in vivo, C. elegans
Experimental: The differential expression of F41E6.5 (gox-1), C31C9.2 (ghpr-1), gcst-1, mel-32 and gcs-1 genes was measured using qRT-PCR. ˜5000 L1 N2 worms were exposed to each condition for 3 days at 15° Cas described above and then washed three times with H2O. Total RNA was isolated using the RNeasy Mini Kit (Qiagen) and equal amounts of all samples were reverse transcribed with SuperScript Ill (Invitrogen) using oligo(dT) 12-18 primers. cDNA quality was tested using standard PCR. qRT-PCR was performed using pre-designed TaqMan Gene Expression Assay (ThermoFischer Scientific) with at least three samples in triplicates. For the relative quantification of gene expression levels, the 2^−ΔΔCT method and results were normalized to the expression level of the cdc-42 gene. Expression levels were averaged over technical and biological replicates, […]

[3] = test system: living organism treated with Paraquat (PQ2+); details: cited from earlier work
[4] = test system: C. elegans; assay: Oxygen consumption rate (OCR), Seahorse XFe96; type: in vivo; details: 100 mM H2O2 plus supplement (10 mM GA, 100 μM glycine or 500 μM L-serine)
Experimental: as §1, with “normalization. A small number of abnormal readings were also filtered out at this stage. On average, 7-8 wells (technical replicates) were used for each condition. Normalized OCR values were averaged for the last 3 measurements for each strain and condition. Four biological replicates were analyzed for each condition.” for “normalization.”

O=C(O)CO [GA, glycolic acid]
Impact on any of the parameters analyzed (FIGS. 1 and 2) ([1]; GA supplementation in the absence of H2O2): does not have a significant impact | Restoration of MMP, OCR or growth rate ([1]; H2O2, RNAi against mel-32 or gcst-1): none of these three compounds were able to restore | MMP, OCR, growth rate ([1]; H2O2, worms fed with empty vector RNAi bacteria): restored parameters | Glycolate-mediated protection (MMP, OCR, growth) ([1]; ghpr-1, gox-1, ldh-1 triple mutant, H2O2): totally abolished | Effect of glycolate on MMP, oxygen consumption rate and developmental rate ([1]; ghpr-1 deletion mutant, H2O2 treatment): significantly reduced effect | Effect of glycolate on MMP, OCR or growth ([1]; single mutants of gox-1 and ldh-1 or their double mutants, H2O2): no reduction in the effect | Expression of gox-1, ghpr-1, mel-32 and gcs-1 ([2]; glycolate supplementation): moderately induced | Expression of gcst-1 ([2]; peroxide or glycolate supplementation): not significantly altered | Animal growth ([3]; PQ2+ exposure): unable to restore | OCR (Oxygen consumption Rate) ([3]; PQ2+ exposure): unable to restore | Mitochondrial membrane potential ([3]; Paraquat (PQ2+) treated): can restore | Respiration rate (OCR) [4]: able to restore both traits

— patent publication US20230414657A1, “Novel compositions for neutralizing toxic effects of hydrogen peroxide in living cells or tissues” (Dzala LLC, priority 2020, published 2023)
